Measurements as given in ChEMBL document CHEMBL1933040, “The novel agent ophiobolin O induces apoptosis and cell cycle arrest of MCF-7 cells through activation of MAPK signaling pathways” (Bioorg Med Chem Lett, 2012).
Calls of active or inactive are those of the source. No cut-off for these calls is given here.

Tests used:
[1] = test system: MCF7; experiment: Induction of apoptosis in human MCF7 cells at 17.86 uM after 48 hrs using Annexin V-FITC and propidium iodide staining by flow cytometry (reference value: 3.71 +/- 0.63%); format: functional
[2] = Activation of JNK phosphorylation in human MCF7 cells at 17.86 uM after 24 hrs by Western blot analysis; format: cell-based
[3] = target: T1, Mitogen-activated protein kinase; ERK1/ERK2 (Homo sapiens) (UniProt P27361+P28482); experiment: Activation of ERK1/2 phosphorylation in human MCF7 cells at 17.86 uM after 48 hrs by Western blot analysis in presence of ERK inhibitor U0126; format: cell-based
T1 sequence (P27361 whole entry, looked up): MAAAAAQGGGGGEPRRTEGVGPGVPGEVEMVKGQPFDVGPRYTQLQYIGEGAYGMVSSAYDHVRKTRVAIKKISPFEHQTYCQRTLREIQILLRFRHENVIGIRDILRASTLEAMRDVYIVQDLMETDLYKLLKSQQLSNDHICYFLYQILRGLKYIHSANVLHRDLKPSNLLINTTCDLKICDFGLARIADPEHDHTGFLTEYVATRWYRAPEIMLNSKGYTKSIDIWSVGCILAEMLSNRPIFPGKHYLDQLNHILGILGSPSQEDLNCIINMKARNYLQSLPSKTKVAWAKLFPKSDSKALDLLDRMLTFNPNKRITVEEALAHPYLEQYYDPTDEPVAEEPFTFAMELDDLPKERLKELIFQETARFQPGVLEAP
T1 sequence (P28482 whole entry, looked up): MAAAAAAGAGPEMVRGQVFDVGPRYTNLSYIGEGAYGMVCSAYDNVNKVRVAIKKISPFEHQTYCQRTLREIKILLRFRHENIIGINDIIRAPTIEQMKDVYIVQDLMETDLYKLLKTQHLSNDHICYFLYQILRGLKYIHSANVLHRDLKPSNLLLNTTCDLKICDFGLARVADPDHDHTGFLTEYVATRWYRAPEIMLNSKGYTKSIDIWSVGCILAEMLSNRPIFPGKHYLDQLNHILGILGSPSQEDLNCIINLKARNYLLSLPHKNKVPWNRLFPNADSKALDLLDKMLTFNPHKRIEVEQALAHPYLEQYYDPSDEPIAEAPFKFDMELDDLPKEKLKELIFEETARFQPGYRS

[4] = test system: MCF7; experiment: Cell cycle arrest in human MCF7 cells assessed as accumulation at G0/G1 phase at 17.86 uM after 48 hrs by flow cytometry (reference value: 39.34 +/- 3.37%); format: functional
[5] = target: T2, MAP kinase p38 (Homo sapiens) (UniProt O15264+Q15759+Q16539+P53778); experiment: Activation of MAPK p38 phosphorylation in human MCF7 cells at 17.86 uM after 36 to 48 hrs by Western blot analysis; format: cell-based
[6] = test system: MCF7; experiment: Cell cycle arrest in human MCF7 cells assessed as accumulation at G0/G1 phase at 17.86 uM by flow cytometry; format: functional, cell-based; settings: TDE = time-dependent effect
[7] = test system: MCF7; experiment: Induction of apoptosis in human MCF7 cells assessed as change in Bax/Bcl2 ratio at 17.86 uM by Western blot analysis; format: functional, cell-based; settings: TDE = time-dependent effect
[8] = test system: MCF7; experiment: Cell cycle arrest in human MCF7 cells assessed as accumulation at G0/G1 phase at 17.86 uM after 24 hrs by flow cytometry (reference value: 39.34 +/- 3.37%); format: functional
[9] = test system: MCF7; experiment: Cytotoxicity against human MCF7 cells after 48 hrs by MTT assay; format: functional, cell-based
[10] = test system: HUVEC; experiment: Cytotoxicity against human HUVEC cells after 48 hrs by MTT assay; format: cell-based
[11] = target: T2, MAP kinase p38 (Homo sapiens); experiment: Activation of MAPK p38 phosphorylation in human MCF7 cells at 17.86 uM after 12 hrs by Western blot analysis; format: cell-based
[12] = test system: MCF7; experiment: Effect on total JNK protein level in human MCF7 cells at 17.86 uM after 12 to 48 hrs by Western blot analysis; format: functional, cell-based
[13] = test system: MCF7; experiment: Induction of apoptosis in human MCF7 cells assessed as increase of Bcl-2 phosphorylation at Ser70 at 17.86 uM after 12 hrs by Western blot analysis in presence of JNK inhibitor SP600125; format: functional, cell-based
[14] = test system: MCF7; experiment: Induction of apoptosis in human MCF7 cells at 17.86 uM using Annexin V-FITC and propidium iodide staining by flow cytometry; format: functional, cell-based; settings: TDE = time-dependent effect
[15] = test system: MCF7; experiment: Induction of apoptosis in human MCF7 cells at 17.86 uM after 48 hrs by using Annexin V-FITC and propidium iodide staining by flow cytometry in presence of JNK inhibitor SP600125; format: functional, cell-based
[16] = test system: MCF7; experiment: Induction of apoptosis in human MCF7 cells assessed as decrease in Bcl2 expression level at 17.86 uM after 12 to 48 hrs by Western blot analysis; format: functional, cell-based
[17] = test system: MCF7; experiment: Induction of apoptosis in human MCF7 cells assessed as change in Bax expression level at 17.86 uM after 12 to 48 hrs by Western blot analysis; format: functional, cell-based
[18] = target: T1, Mitogen-activated protein kinase; ERK1/ERK2 (Homo sapiens); experiment: Activation of ERK1/2 phosphorylation in human MCF7 cells at 17.86 uM after 24 hrs by Western blot analysis relative to control; format: cell-based
[19] = test system: MCF7; experiment: Cell cycle arrest in human MCF7 cells assessed as accumulation at G0/G1 phase at 17.86 uM after 12 hrs by flow cytometry (reference value: 39.34 +/- 3.37%); format: functional
[20] = test system: MCF7; experiment: Effect on total ERK 1/2 protein level in human MCF7 cells at 17.86 uM after 12 to 48 hrs by Western blot analysis; format: functional, cell-based
[21] = test system: MCF7; experiment: Induction of apoptosis in human MCF7 cells assessed as increase in Bim expression level at 17.86 uM after 12 to 48 hrs by Western blot analysis; format: functional, cell-based
[22] = target: T2, MAP kinase p38 (Homo sapiens); experiment: Activation of MAPK p38 phosphorylation in human MCF7 cells at 17.86 uM after 48 hrs by Western blot analysis in presence of p38 inhibitor SB203580; format: cell-based
[23] = test system: MCF7; experiment: Induction of apoptosis in human MCF7 cells assessed as change in Bcl-2 protein level at 17.86 uM after 12 hrs by Western blot analysis in presence of JNK inhibitor SP600125; format: functional, cell-based
[24] = test system: MCF7; experiment: Effect on total MAPK p38 protein level in human MCF7 cells at 17.86 uM after 12 to 48 hrs by Western blot analysis; format: functional, cell-based

Activity [3]: inactive
Activity [5]: Active
Activity [11]: Active
Activity [18]: Active
Activity [22]: inactive
Structure (SMILES): CO[C@H]1O[C@@]2(OC)C[C@@](C)(O)[C@H]3C[C@@]4(C)CC[C@H]([C@@H](C)/C=C\C=C(C)C)[C@@H]4C/C=C/1[C@H]32 [OPHIOBOLIN O]
Activity [1]: 47.18%
Activity [2]: Active
Activity [4]: 78.54%
Activity [6]: tde
Activity [7]: tde
Activity [8]: 60.1%
Activity [9]: Dose-dependent effect
IC50 ([9]; MCF7, 48 h): 17.9 µM
Activity [10]: Non-toxic
Activity [12]: Active
Activity [13]: Active
Activity [14]: tde
Activity [15]: inactive
Activity [16]: Active
Activity [17]: inactive
Activity [19]: 44.79%
Activity [20]: Active
Activity [21]: Active
Activity [23]: Active
Activity [24]: Active
